Results published in PubChem BioAssay AID328 (DTP/NCI, 2004).
“And” between values parts separate entries of the source, which are not always exact repeats. Equal entries are not always repeated. Toxic doses and inconclusive results are not listed.

Tested on: BDF1 mice, P388 leukemia ip, median survival T/C
Assay: NCI In Vivo Anticancer Drug Screen. Data for tumor model P388 Leukemia (intraperitoneal) in B6D2F1 (BDF1) mice
Conditions: endpoint: median survival time, higher = longer survival
Outline: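 Mice carrying the transplantable tumour receive compound or vehicle. Survival is followed in each arm, and the treated measure is divided by the vehicle measure.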

[1] = dose: 25.0 mg/kg/injection, schedule: Q04DX003 (ip), vehicle: Klucel (hydroxypropylcellulose) (HPC)
[2] = dose: 50.0 mg/kg/injection, schedule: Q04DX003 (ip), vehicle: Klucel (hydroxypropylcellulose) (HPC)
[3] = dose: 100.0 mg/kg/injection, schedule: Q01DX009 (ip), vehicle: saline
[4] = dose: 100.0 mg/kg/injection, schedule: Q04DX003 (ip), vehicle: Klucel (hydroxypropylcellulose) (HPC)
[5] = dose: 100.0 mg/kg/injection, schedule: Q04DX003 (ip), vehicle: saline
[6] = dose: 200.0 mg/kg/injection, schedule: Q01DX009 (ip), vehicle: saline
[7] = dose: 200.0 mg/kg/injection, schedule: Q04DX003 (ip), vehicle: Klucel (hydroxypropylcellulose) (HPC)
[8] = dose: 200.0 mg/kg/injection, schedule: Q04DX003 (ip), vehicle: saline
[9] = dose: 400.0 mg/kg/injection, schedule: Q01DX009 (ip), vehicle: saline
[10] = dose: 400.0 mg/kg/injection, schedule: Q04DX003 (ip), vehicle: Klucel (hydroxypropylcellulose) (HPC)
[11] = dose: 25.0 mg/kg/injection, schedule: Q04DX003 (ip), vehicle: saline with Tween-80
[12] = dose: 50.0 mg/kg/injection, schedule: Q04DX003 (ip), vehicle: saline with Tween-80
[13] = dose: 25.0 mg/kg/injection, schedule: Q01DX009 (ip), vehicle: saline with Tween-80
[14] = dose: 50.0 mg/kg/injection, schedule: Q01DX009 (ip), vehicle: saline with Tween-80
[15] = dose: 100.0 mg/kg/injection, schedule: Q01DX009 (ip), vehicle: saline with Tween-80
[16] = dose: 100.0 mg/kg/injection, schedule: Q04DX003 (ip), vehicle: saline with Tween-80
[17] = dose: 200.0 mg/kg/injection, schedule: Q04DX003 (ip), vehicle: saline with Tween-80
[18] = dose: 400.0 mg/kg/injection, schedule: Q04DX003 (ip), vehicle: saline with Tween-80

Cc1nn(-c2ccccc2)c(N)c1C#N
T/C (dose: 6.25 mg/kg/injection, schedule: Q01DX009 (ip), vehicle: saline): 111 % of control
T/C (dose: 12.5 mg/kg/injection, schedule: Q01DX009 (ip), vehicle: saline): 94 % of control
T/C (dose: 12.5 mg/kg/injection, schedule: Q04DX003 (ip), vehicle: saline): 98 % of control
T/C (dose: 25.0 mg/kg/injection, schedule: Q01DX009 (ip), vehicle: saline): 102 % of control
T/C [1]: 98 % of control
T/C (dose: 25.0 mg/kg/injection, schedule: Q04DX003 (ip), vehicle: saline): 163 % of control
T/C (dose: 50.0 mg/kg/injection, schedule: Q01DX009 (ip), vehicle: saline): 111 % of control
T/C [2]: 98 % of control
T/C (dose: 50.0 mg/kg/injection, schedule: Q04DX003 (ip), vehicle: saline): 86 % of control
T/C [3]: 96 % of control
T/C [4]: 121 % of control
T/C [5]: 87 % of control
T/C [6]: 111 % of control
T/C [7]: 113 % of control
T/C [8]: 269 % of control
T/C [9]: 105 % of control
T/C [10]: 102 % of control

O=C(O)c1ccc(N=NSc2ncnc3nc[nH]c23)cc1O
T/C (dose: 1.3 mg/kg/injection, schedule: Q01DX009 (ip), vehicle: saline with Tween-80): 115 % of control
T/C (dose: 3.0 mg/kg/injection, schedule: Q01DX009 (ip), vehicle: saline with Tween-80): 153 % of control
T/C (dose: 4.0 mg/kg/injection, schedule: Q01DX009 (ip), vehicle: saline with Tween-80): 150 % of control
T/C (dose: 6.0 mg/kg/injection, schedule: Q01DX009 (ip), vehicle: saline with Tween-80): 119 % of control and 123 % of control
T/C (dose: 9.0 mg/kg/injection, schedule: Q01DX009 (ip), vehicle: saline with Tween-80): 123 % of control
T/C (dose: 12.0 mg/kg/injection, schedule: Q01DX009 (ip), vehicle: saline with Tween-80): 96 % of control
T/C (dose: 14.5 mg/kg/injection, schedule: Q04DX003 (ip), vehicle: saline with Tween-80): 122 % of control
T/C (dose: 22.0 mg/kg/injection, schedule: Q04DX003 (ip), vehicle: saline with Tween-80): 122 % of control
T/C [11]: 161 % of control
T/C (dose: 33.0 mg/kg/injection, schedule: Q04DX003 (ip), vehicle: saline with Tween-80): 118 % of control and 119 % of control
T/C [12]: 177 % of control
T/C (dose: 75.0 mg/kg/injection, schedule: Q04DX003 (ip), vehicle: saline with Tween-80): 119 % of control

NC(=O)c1ccc(Cl)c(Cl)c1
T/C (dose: 100.0 mg/kg/injection, schedule: Q04DX003 (ip), vehicle: other): 116 % of control
T/C (dose: 200.0 mg/kg/injection, schedule: Q04DX003 (ip), vehicle: other): 122 % of control

COc1ccc(CNCCNCCNCc2ccc(OC)cc2)cc1
T/C [13]: 87 % of control
T/C [14]: 105 % of control
T/C [15]: 101 % of control and 105 % of control
T/C [16]: 122 % of control
T/C (dose: 200.0 mg/kg/injection, schedule: Q01DX009 (ip), vehicle: saline with Tween-80): 93 % of control
T/C [17]: 111 % of control
T/C (dose: 400.0 mg/kg/injection, schedule: Q01DX009 (ip), vehicle: saline with Tween-80): 101 % of control
T/C [18]: 122 % of control

Oc1c(Cl)c(Cl)c(Cl)c(Cl)c1Cl (tested in a mixture with another compound)
T/C [13]: 109 % of control

Nc1nc2c(ncn2C2CC(O)C(CO)O2)c(=O)n1N (centres undefined)
T/C (dose: 12.5 mg/kg/injection, schedule: Q01DX009 (ip), vehicle: saline with Tween-80): 97 % of control
T/C [13]: 111 % of control
T/C [14]: 108 % of control
T/C [15]: 101 % of control

O=S(=O)(O)c1c(Cl)c(Cl)c(Cl)c(Cl)c1Cl
T/C (dose: 50.0 mg/kg/injection, schedule: Q04DX003 (ip), vehicle: suspension in saline): 115 % of control
T/C (dose: 100.0 mg/kg/injection, schedule: Q04DX003 (ip), vehicle: suspension in saline): 116 % of control
T/C (dose: 200.0 mg/kg/injection, schedule: Q04DX003 (ip), vehicle: suspension in saline): 114 % of control

N=Cc1c(O)[nH]c(=O)[nH]c1=O
T/C [3]: 109 % of control
T/C [5]: 92 % of control
T/C [6]: 109 % of control
T/C [8]: 107 % of control
T/C [9]: 118 % of control
T/C (dose: 400.0 mg/kg/injection, schedule: Q04DX003 (ip), vehicle: saline): 92 % of control

Nc1nc(N)nc(N)n1
T/C (dose: 100.0 mg/kg/injection, schedule: Q01DX009 (ip), vehicle: Klucel (hydroxypropylcellulose) (HPC)): 90 % of control
T/C (dose: 200.0 mg/kg/injection, schedule: Q01DX009 (ip), vehicle: Klucel (hydroxypropylcellulose) (HPC)): 90 % of control
T/C (dose: 400.0 mg/kg/injection, schedule: Q01DX009 (ip), vehicle: Klucel (hydroxypropylcellulose) (HPC)): 100 % of control
T/C (dose: 800.0 mg/kg/injection, schedule: Q01DX009 (ip), vehicle: Klucel (hydroxypropylcellulose) (HPC)): 100 % of control
T/C (dose: 2000.0 mg/kg/injection, schedule: Q01DX009 (ip), vehicle: Klucel (hydroxypropylcellulose) (HPC)): 95 % of control

CC(=O)OCc1ccc(Cl)cc1
T/C [14]: 116 % of control
T/C [15]: 112 % of control

O=C(N[C@H](CO)[C@H](O)c1ccc([N+](=O)[O-])cc1)C(Cl)Cl
T/C [15]: 118 % of control

Cc1c(CO)[nH]c(=S)[nH]c1=O
T/C (dose: 100.0 mg/kg/injection, schedule: Q01DX001 (ip), vehicle: Klucel (hydroxypropylcellulose) (HPC)): 90 % of control
T/C (dose: 200.0 mg/kg/injection, schedule: Q01DX001 (ip), vehicle: Klucel (hydroxypropylcellulose) (HPC)): 104 % of control
T/C (dose: 400.0 mg/kg/injection, schedule: Q01DX001 (ip), vehicle: Klucel (hydroxypropylcellulose) (HPC)): 95 % of control

NC(=O)SCC(=O)Nc1ccc2ncccc2c1
T/C (dose: 88.0 mg/kg/injection, schedule: Q01DX009 (ip), vehicle: saline): 122 % of control
T/C (dose: 100.0 mg/kg/injection, schedule: Q04DX003 (ip), vehicle: saline sonified): 104 % of control
T/C (dose: 132.0 mg/kg/injection, schedule: Q01DX009 (ip), vehicle: saline): 118 % of control
T/C (dose: 200.0 mg/kg/injection, schedule: Q04DX003 (ip), vehicle: saline sonified): 100 % of control
T/C (dose: 400.0 mg/kg/injection, schedule: Q04DX003 (ip), vehicle: saline sonified): 100 % of control

CCOC(=O)c1cc(CC)sc1N
T/C [16]: 95 % of control
T/C [17]: 108 % of control
T/C [18]: 108 % of control

Cc1cc2ccccc2oc1=O
T/C [11]: 100 % of control
T/C [12]: 100 % of control
T/C [16]: 100 % of control

CC(C)(C)CC(Cl)Cl
T/C (dose: 75.0 mg/kg/injection, schedule: Q01DX009 (ip), vehicle: Klucel (hydroxypropylcellulose) (HPC)): 100 % of control
T/C [4]: 100 % of control
T/C (dose: 150.0 mg/kg/injection, schedule: Q01DX009 (ip), vehicle: Klucel (hydroxypropylcellulose) (HPC)): 100 % of control
T/C [7]: 100 % of control
T/C [10]: 107 % of control

N/C(=N\OS(=O)(=O)c1ccccc1)OC1CCCCC1
T/C [16]: 99 % of control
T/C [17]: 98 % of control
T/C [18]: 98 % of control

NOCc1csc(N)n1
T/C (dose: 75.0 mg/kg/injection, schedule: Q04DX003 (ip), vehicle: saline): 91 % of control
T/C (dose: 300.0 mg/kg/injection, schedule: Q04DX003 (ip), vehicle: saline): 87 % of control

CN(C)CCNc1ccc([N+](=O)[O-])c2sc3ccccc3c(=O)c12
T/C (dose: 7.5 mg/kg/injection, schedule: Q01DX009 (ip), vehicle: Klucel (hydroxypropylcellulose) (HPC)): 107 % of control
T/C (dose: 11.0 mg/kg/injection, schedule: Q01DX009 (ip), vehicle: Klucel (hydroxypropylcellulose) (HPC)): 115 % of control
T/C (dose: 12.5 mg/kg/injection, schedule: Q04DX003 (ip), vehicle: Klucel (hydroxypropylcellulose) (HPC)): 108 % of control
T/C (dose: 17.0 mg/kg/injection, schedule: Q01DX009 (ip), vehicle: Klucel (hydroxypropylcellulose) (HPC)): 108 % of control
T/C (dose: 25.0 mg/kg/injection, schedule: Q01DX009 (ip), vehicle: Klucel (hydroxypropylcellulose) (HPC)): 157 % of control and 166 % of control
T/C [1]: 116 % of control
T/C (dose: 37.0 mg/kg/injection, schedule: Q01DX009 (ip), vehicle: Klucel (hydroxypropylcellulose) (HPC)): 92 % of control and 108 % of control
T/C (dose: 50.0 mg/kg/injection, schedule: Q01DX009 (ip), vehicle: Klucel (hydroxypropylcellulose) (HPC)): 91 % of control
T/C [2]: 162 % of control
